Data on 1 compound can be found in patent US7592451B2, “Treatment for diabetes and obesity as well as method of screening compounds useful for such treatments” (New York University, priority 2005, dated 2009).

For one experiment, the target named is T1, rabbit muscle GAPDH (Oryctolagus cuniculus, UniProt P46406).
T1 construct: host or cells: rabbit muscle
As to the kind of experiment: In vitro GAPDH inhibition assay (NADH fluorescence). The format is biochemical. The settings on record: 0.2 mM GAP, 0.1 mM NAD+, pH 8.6; read-out: IC50 against GAPDH. Here is the method: Rabbit muscle GAPDH and glyceraldehydes-3-phosphate (GAP) were employed. The assay was performed in black polypropylene 96-well micro-titer plates using a 100 μl solution of 100 mM sodium phosphate at pH 8.6, 5 mM EDTA, 0.2 mM GAP, 0.1 mM NAD^+, 0.5 units of GAPDH in the presence of varying concentrations of compound. The reaction was initiated by addition of GAP. Amounts of produced NADH was monitored by a fluorescence plate reader, at λex=340 nm, λem=460 nm (ex=excitation, em=emission wave length) (FIG. 7).

Experiment [1] concerns Daf-2 mutant C. elegans strain e1370. Kind of experiment: Dauer formation screen in Daf-2 mutant C. elegans. The format is in vivo. The note with it: L2 stage worms soaked in 100 μM compound, warmed to 25° C. As for the experimental part: The Daf-2 mutant C. elegans strain e1370 was grown on nematode growth media (NGM) agar plates with E. coli (OP50) under standard conditions at 16° C. C. elegans mutant strains were obtained from the Caenorhabditis Genetics Center. Twenty synchronized early L2 animals grown at 16° C. were soaked in 96-well plates containing 100 μM of compounds/2% OP50 culture/M9 buffer, and then incubated at 25° C. for 4 days.
TG-Bz library (1120 members) compounds were screened in L2 stage worms grown at 16° C. by soaking in a 100 μM chemical solution and were warmed up to 25° C., in which 100% of untreated Daf-2 mutant larvae enter dauer within 24 hours. […] E3 is the TGBz control compound (FIG. 2C).

For a further experiment, the system named is 3T3-L1 pre-adipocytes. Kind of experiment: Glucose uptake (2-NBDG) by 3T3-L1 pre-adipocytes. The format is cell-based. Here is the method: To validate the relevance of this C. elegans data to a mammalian system, F43 was tested for glucose uptake in 3T3-L1 pre-adipocytes using a fluorescent derivative of glucose, 2-NBD-deoxyglucose (Moon et al., “A Novel Microtubule Destabilizing Entity from Orthogonal Synthesis of Triazine Library and Zebrafish Embryo Screening,” J. Am. Chem. Soc. 124:11608-11609 (2002), which is hereby incorporated by reference in its entirety).
3T3-L1 pre-adipocytes, were grown in DMEM (Dulbecco's Modified Eagle Medium Media) containing 1% antibiotics, and 10% heat-inactivated newborn calf serum under a humidified 5% CO2 atmosphere. The cells were seeded in 48-well plates and allowed to adhere to the dish overnight. Cultures at 70-80% confluence were used for the chemical exposures. […] Fluorescence intensity was measured in a fluorescence micro-plate reader at λex=466 nm and λem=540 nm.
FIGS. 3A-B show the up-regulation of glucose uptake by 3T3-L1 pre-adipocytes upon treatment with Insulin, the TGBz compound F43, and the TGBz compound E3 as a control. […] Following incubation with the dye for 15 min. at 37° C., cells were washed with ice-cold PBS, and the fluorescence intensity was measured. The uptake of the fluorescent 2-NBDG was visualized by a Leica 2000 fluorescence microscope with excitation at 488 nm and long-pass detection at 530 nm and measured by a fluorescence microplate reader. […]

T1 sequence (P46406 2-333 limits assumed): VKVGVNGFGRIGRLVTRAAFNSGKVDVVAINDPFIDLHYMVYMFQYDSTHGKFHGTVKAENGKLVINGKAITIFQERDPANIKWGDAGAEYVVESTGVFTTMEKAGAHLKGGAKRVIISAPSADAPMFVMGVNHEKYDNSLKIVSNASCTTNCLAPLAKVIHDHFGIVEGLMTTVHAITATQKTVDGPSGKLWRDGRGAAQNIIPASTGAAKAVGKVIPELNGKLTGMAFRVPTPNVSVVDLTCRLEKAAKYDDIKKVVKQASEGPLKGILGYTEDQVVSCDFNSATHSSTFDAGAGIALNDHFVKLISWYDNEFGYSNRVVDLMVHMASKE

By IC50 is commonly meant the point on the concentration scale where inhibition reaches its midpoint. As for `O=C(NCCOCCOCCNc1nc(NCCc2ccc(O)c(O)c2)nc(Nc2ccccc2)n1)c1ccccc1` [F43], on rabbit muscle GAPDH, the IC50 amounted to 4 µM. Besides, the “effect on dauer formation” value in experiment [1] was “inhibits dauer formation”. Further, the “glucose uptake (2-NBDG fluorescence)” value in the experiment with 3T3-L1 pre-adipocytes (15 min incubation, 100 μM 2-NBDG, compound up to 10 μM) was “dose dependent glucose uptake was observed”. Further, the “glucose uptake on co-treatment with insulin” value in the experiment with 3T3-L1 pre-adipocytes (co-treatment with insulin (100 nM), 15 min) is on record as “synergistic effect”.
